Pest or weed control and YFM rating data for 21 compounds are collected here from patent publication US10219516B2, “Molecules having pesticidal utility, and intermediates, compositions, and processes, related thereto” (priority 2015, dated 2019).

Common to all, as to type: in vivo
The subject of experiment [1] is Beet Armyworm (Spodoptera exigua, LAPHEG). Nature of the experiment: Bioassay on Beet Armyworm (BAW), 128-well diet tray assay. As to conditions: Beet Armyworm, 128-well diet tray assay, read-out: BAW rating. The method, boiled down:
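Second-instar larvae, one to five per well, placed on artificial diet surface-treated with 50 μg/cm^2 compound applied in 90:10 acetone-water and dried. Held 5–7 days at 25° C., 14:10 light-dark. Percent mortality recorded per well and averaged over eight wells.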

Experiment [2] relates to Cabbage Looper (Trichoplusia ni, TRIPNI). Nature of the experiment: Bioassay on Cabbage Looper (CL), 128-well diet tray assay. The note with it: Trichoplusia ni; Cabbage Looper, 128-well diet tray assay; read-out: CL rating. The method, boiled down:
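Percent mortality, averaged across eight replicate wells, was scored after five to seven days at 25° C. under a 14:10 light-dark cycle. Each well held one to five second instar larvae on artificial diet treated at 50 μg/cm^2 with compound from 90:10 acetone-water, allowed to dry before infestation.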

Experiment [3] concerns Yellow Fever Mosquito (Aedes aegypti, AEDSAE). The experiment in a line: Bioassay on Yellow Fever Mosquito (YFM), 96-well plate larval assay. The note with it: Yellow Fever Mosquito, 96-well plate larval assay. The method, boiled down:
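Aedes aegypti larvae (about 1 day old) in liver-powder water were added to plates dispensed from DMSO master plates (4000 ppm stock) diluted with 90:10 water/acetone; six replicate plates per master. Lidded plates were held at room temperature for 3 days, then each well was scored for mortality.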

In the case of `O=C(Nc1nc2ccc(F)cc2s1)c1cc(NC(=O)C2C(c3cc(Cl)cc(Cl)c3)C2(Cl)Cl)ccc1Cl` (stereo not drawn) [F445, 2-Chloro-5-(trans)-2,2-dichloro-3-(3,5-dichlorophenyl)cyclopropane-1-carboxamido)-N-(6-fluorobenzo[d]thiazol-2-yl)benzamide], the pest or weed control at 50 µg/cm2 in experiment [1] and in experiment [2] was 50 to 100% each time. Also, in experiment [3], the YFM rating entry is “B (More than 0-Less than 80)”.

Turning to `O=C(Nc1nc2ccccc2o1)c1cc(NC(=O)C2C(c3cc(Cl)cc(Cl)c3)C2(Cl)Cl)ccc1Cl` (stereo not drawn) [F447, N-(Benzo[d]oxazol-2-yl)-2-chloro-5-(trans)-2,2-dichloro-3-(3,5-dichlorophenyl)cyclopropane-1-carboxamido)benzamide], the pest or weed control at 50 µg/cm2 in experiment [1] and in experiment [2] was 50 to 100% each time. Also, in experiment [3], the YFM rating result is “A (80-100)”.

As to `Cn1nc(NC(=O)c2cc(NC(=O)C3C(c4cc(Cl)cc(Cl)c4)C3(Cl)Cl)ccc2Cl)c2c(F)cccc21` (stereo not drawn) [F449, 2-Chloro-5-(trans)-2,2-dichloro-3-(3,5-dichlorophenyl)cyclopropane-1-carboxamido)-N-(4-fluoro-1-methyl-1H-indazol-3-yl)benzamide], the pest or weed control at 50 µg/cm2 in experiment [1] and in experiment [2] was 50 to 100% throughout. Besides, the YFM rating result in experiment [3] is reported as “A (80-100)”.

Consider `O=C(Nc1ccc2ncoc2c1)c1cc(NC(=O)C2C(c3cc(Cl)cc(Cl)c3)C2(Cl)Cl)ccc1Cl` (stereo not drawn) [F450, N-(Benzo[d]oxazol-6-yl)-2-chloro-5-(trans)-2,2-dichloro-3-(3,5-dichlorophenyl)cyclopropane-1-carboxamido)benzamide], for which the pest or weed control at 50 µg/cm2 in experiment [1] and in experiment [2] was 50 to 100% throughout. Moreover, the YFM rating result in experiment [3] is “A (80-100)”.

As to `O=C(Nc1cc2ocnc2cc1F)c1cc(NC(=O)C2C(c3cc(Cl)cc(Cl)c3)C2(Cl)Cl)ccc1Cl` (stereo not drawn) [F453, 2-Chloro-5-(trans)-2,2-dichloro-3-(3,5-dichlorophenyl)cyclopropane-1-carboxamido)-N-(5-fluorobenzo[d]oxazol-6-yl)benzamide], the pest or weed control at 50 µg/cm2 in experiment [1] and in experiment [2] was 50 to 100% throughout. The YFM rating result in experiment [3] was “A (80-100)”.

Turning to `Cc1cc2cc(NC(=O)c3cc(NC(=O)C4C(c5cc(Cl)cc(Cl)c5)C4(Cl)Cl)ccc3Cl)ccc2[nH]1` (stereo not drawn) [F454, 2-Chloro-5-(trans)-2,2-dichloro-3-(3,5-dichlorophenyl)cyclopropane-1-carboxamido)-N-(2-methyl-1H-indol-5-yl)benzamide], the pest or weed control at 50 µg/cm2 in experiment [1] and in experiment [2] was 50 to 100% each time. In addition, the YFM rating result in experiment [3] is “A (80-100)”.

`Cc1nc2cc(NC(=O)c3cc(NC(=O)C4C(c5cc(Cl)cc(Cl)c5)C4(Cl)Cl)ccc3Cl)ccc2s1` (stereo not drawn) [F455, 2-Chloro-5-(trans)-2,2-dichloro-3-(3,5-dichlorophenyl)cyclopropane-1-carboxamido)-N-(2-methylbenzo[d]thiazol-5-yl)benzamide]: the pest or weed control at 50 µg/cm2 in experiment [1] and in experiment [2] was 50 to 100% each time. The YFM rating entry in experiment [3] is recorded as “A (80-100)”.

As to `O=C(Nc1ccc2[nH]cnc2c1)c1cc(NC(=O)C2C(c3cc(Cl)cc(Cl)c3)C2(Cl)Cl)ccc1Cl` (stereo not drawn) [F456, N-(1H-Benzo[d]imidazol-5-yl)-2-chloro-5-(trans)-2,2-dichloro-3-(3,5-dichlorophenyl)cyclopropane-1-carboxamido)benzamide], the pest or weed control at 50 µg/cm2 in experiment [1] and in experiment [2] was 50 to 100% each time. Also, the YFM rating result in experiment [3] is reported as “B (More than 0-Less than 80)”.

On to `Cn1ccc2cc(NC(=O)c3cc(NC(=O)C4C(c5cc(Cl)cc(Cl)c5)C4(Cl)Cl)ccc3Cl)ccc21` (stereo not drawn) [F457, 2-Chloro-5-(trans)-2,2-dichloro-3-(3,5-dichlorophenyl)cyclopropane-1-carboxamido)-N-(1-methyl-1H-indol-5-yl)benzamide], for which the pest or weed control at 50 µg/cm2 in experiment [1] and in experiment [2] was 50 to 100% each time. In experiment [3], the YFM rating entry was “A (80-100)”.

For `O=C(Nc1ccc2nccn2c1)c1cc(NC(=O)C2C(c3cc(Cl)cc(Cl)c3)C2(Cl)Cl)ccc1Cl` (stereo not drawn) [F475, 2-Chloro-5-(trans)-2,2-dichloro-3-(3,5-dichlorophenyl)cyclopropane-1-carboxamido)-N-(imidazo[1,2-a]pyridin-6-yl)benzamide], the pest or weed control at 50 µg/cm2 in experiment [1] and in experiment [2] was 50 to 100% each time. Also, the YFM rating entry in experiment [3] is recorded as “A (80-100)”.

Take `C/S(=N\C#N)c1ccc(NC(=O)c2cc(NC(=O)C3C(c4cc(Cl)cc(Cl)c4)C3(Cl)Cl)ccc2Cl)cc1` (stereo not drawn) [F495, trans-2-chloro-N-(4-(N-cyano-S-methylsulfinimidoyl)phenyl)-5-(2,2-dichloro-3-(3,5-dichlorophenyl)cyclopropane-1-carboxamido)benzamide]: the pest or weed control at 50 µg/cm2 in experiment [1] and in experiment [2] was 50 to 100% throughout. Also, the YFM rating result in experiment [3] is given as “A (80-100)”.

Take `CN1Cc2ccc(NC(=O)c3cc(NC(=O)C4C(c5cc(Cl)cc(Cl)c5)C4(Cl)Cl)ccc3Cl)cc2C1` (stereo not drawn) [F498, 2-Chloro-5-(trans)-2,2-dichloro-3-(3,5-dichlorophenyl)cyclopropane-1-carboxamido)-N-(2-methylisoindolin-5-yl)benzamide]: the pest or weed control at 50 µg/cm2 in experiment [1] and in experiment [2] was 50 to 100% in each case. The YFM rating entry in experiment [3] is “A (80-100)”.

As to `CS(=O)(=NC#N)c1ccc(NC(=O)c2cc(NC(=O)C3C(c4cc(Cl)cc(Cl)c4)C3(Cl)Cl)ccc2Cl)cc1` (stereo not drawn) [F502, trans-2-chloro-N-(4-(N-cyano-S-methylsulfonimidoyl)phenyl)-5-(2,2-dichloro-3-(3,5-dichlorophenyl)cyclopropane-1-carboxamido)benzamide], the pest or weed control at 50 µg/cm2 in experiment [1] and in experiment [2] was 50 to 100% in each case. Moreover, the YFM rating entry in experiment [3] is recorded as “A (80-100)”.

As to `Cc1cc(/N=C/c2ccc(Cl)cc2)ccc1NC(=O)c1cc(NC(=O)C2C(c3cc(Cl)cc(Cl)c3)C2(Cl)Cl)ccc1Cl` (stereo not drawn) [F510], the pest or weed control at 50 µg/cm2 in experiment [1] and in experiment [2] was 50 to 100% each time. Besides, in experiment [3], the YFM rating result is reported as “A (80-100)”.

With `O=C(Nc1ncc(F)c(NCc2ccccc2)c1F)c1cc(NC(=O)[C@H]2[C@H](c3cc(Cl)cc(Cl)c3)C2(Cl)Cl)ccc1Cl` [F524, N-(4-(Benzylamino)-3,5-difluoropyridin-2-yl)-2-chloro-5-((1R,3R)-2,2-dichloro-3-(3,5-dichlorophenyl)cyclopropane-1-carboxamido)benzamide], the pest or weed control at 50 µg/cm2 in experiment [1] and in experiment [2] was 50 to 100% in each case. Further, in experiment [3], the YFM rating result was “A (80-100)”.

Regarding `O=C(Nc1cncc(NO)c1)c1cc(NC(=O)[C@H]2[C@H](c3cc(Cl)cc(Cl)c3)C2(Cl)Cl)ccc1Cl` [F525, 2-Chloro-5-((1R,3R)-2,2-dichloro-3-(3,5-dichlorophenyl)cyclopropane-1-carboxamido)-N-(5-(hydroxyamino)pyridin-3-yl)benzamide], the pest or weed control at 50 µg/cm2 in experiment [1] and in experiment [2] was 50 to 100% throughout. Moreover, the YFM rating result in experiment [3] is recorded as “A (80-100)”.

In the case of `O=C(Nc1cncc(NO)c1)c1cc(NC(=O)[C@H]2[C@H](c3ccc(Cl)c(Cl)c3)C2(Cl)Cl)ccc1Cl` [F526, 2-Chloro-5-((1R,3R)-2,2-dichloro-3-(3,4-dichlorophenyl)cyclopropane-1-carboxamido)-N-(5-(hydroxyamino)pyridin-3-yl)benzamide], the pest or weed control at 50 µg/cm2 in experiment [1] and in experiment [2] was 50 to 100% in each case. For the same compound, the YFM rating entry in experiment [3] is given as “A (80-100)”.

With `O=C(Nc1ccc(F)cc1F)c1cc(NC(=O)[C@@H]2[C@@H](c3ccc(F)c(Cl)c3)C2(Cl)Cl)ccc1Cl` [F534, 2-Chloro-5-((1S,3S)-2,2-dichloro-3-(3-chloro-4-fluorophenyl)cyclopropane-1-carboxamido)-N-(2,4-difluorophenyl)benzamide], the pest or weed control at 50 µg/cm2 in experiment [1] and in experiment [2] was 50 to 100% in each case. Besides, the YFM rating entry in experiment [3] is listed as “A (80-100)”.

Regarding `N#Cc1cc(F)ccc1NC(=O)c1cc(NC(=O)[C@H]2[C@H](c3cc(Cl)cc(Cl)c3)C2(Cl)Cl)ccc1Cl` [F535, 2-Chloro-N-(2-cyano-4-fluorophenyl)-5-((1R,3R)-2,2-dichloro-3-(3,5-dichlorophenyl)cyclopropane-1-carboxamido)benzamide], the pest or weed control at 50 µg/cm2 in experiment [1] and in experiment [2] was 50 to 100% in each case. Moreover, the YFM rating result in experiment [3] is reported as “A (80-100)”.

For `N#Cc1cc(F)ccc1NC(=O)c1cc(NC(=O)[C@@H]2[C@@H](c3cc(Cl)cc(Cl)c3)C2(Cl)Cl)ccc1Cl` [F536, 2-Chloro-N-(2-cyano-4-fluorophenyl)-5-((1S,3S)-2,2-dichloro-3-(3,5-dichlorophenyl)cyclopropane-1-carboxamido)benzamide], the pest or weed control at 50 µg/cm2 in experiment [1] and in experiment [2] was 50 to 100% in each case. The YFM rating entry in experiment [3] is “A (80-100)”.

With `COc1c(F)cc(C2C(C(=O)Nc3ccc(Cl)c(C(=O)Nc4ccc(F)cc4F)c3)C2(Cl)Cl)cc1F` (stereo not drawn) [F537, 2-Chloro-5-trans-(2,2-dichloro-3-(3,5-difluoro-4-methoxyphenyl)cyclopropane-1-carboxamido)-N-(2,4-difluorophenyl)benzamide], the pest or weed control at 50 µg/cm2 in experiment [1] and in experiment [2] was 50 to 100% each time. Also, the YFM rating entry in experiment [3] is recorded as “A (80-100)”.
